Results from ChEMBL document CHEMBL1130825, “Novel D-ring analogues of podophyllotoxin as potent anti-cancer agents” (1998).

Key:
COLO 205 = assay: In vitro cytotoxicity against human colon cancer COLO 205 cell line; assay type: functional
HT-29 = assay: In vitro cytotoxicity against human colon cancer HT 29 cell line; assay type: functional
KM12 = assay: In vitro cytotoxicity against human colon cancer KM 12 cell line; assay type: functional
HCT-116 = assay: In vitro cytotoxicity against human colon cancer HCT 116 cell line; assay type: functional
HCC 2998 = assay: In vitro cytotoxicity against human colon cancer HCC 2998 cell line; assay type: functional
HCT-15 = assay: In vitro cytotoxicity against human colon cancer HCT 15 cell line; assay type: functional
BT-549 = assay: In vitro cytotoxicity against human breast cancer BT-549 cell line; assay type: functional
MDA-N = assay: In vitro cytotoxicity against human breast cancer MDA-N cell line; assay type: functional
M14 [1] = assay: in vitro cytotoxicity against M-14 cancer cell line; assay type: functional; settings: Homo sapiens
Hs-578T = assay: In vitro cytotoxicity against human breast cancer Hs 578.T cell line; assay type: functional
MDA-MB-231 = assay: In vitro cytotoxicity against human breast cancer MDA-MB 231 cell line; assay type: functional
MDA-MB-435 = assay: In vitro cytotoxicity against human breast cancer MDA-MB 435 cell line; assay type: functional
A498 [2] = assay: in vitro cytotoxicity against A 498 cancer cell line; assay type: functional; settings: Homo sapiens
MCF7 [3] = assay: In vitro cytotoxicity against human breast cancer MCF-7 cell line; assay type: functional
SW-620 = assay: In vitro cytotoxicity against human colon cancer SW 620 cell line; assay type: functional
SK-OV-3 [4] = assay: in vitro cytotoxicity against SKOV3 cancer cell line; assay type: functional; settings: Homo sapiens
DU-145 [5] = assay: in vitro cytotoxicity against DU-145 cancer cell line; assay type: functional; settings: Homo sapiens
[6] = In vitro cytotoxicity against human breast cancer MCF-7 ADR cell line; assay type: functional; settings: MCF7
SK-OV-3 [7] = assay: Compound was evaluated for in vitro cytotoxicity against SKOV3 cancer cell line; assay type: functional; settings: Homo sapiens
MCF7 [8] = assay: in vitro cytotoxicity against MCF-7 ADR cancer cell line; assay type: functional; settings: Homo sapiens
MCF7 [9] = assay: Compound was evaluated for in vitro cytotoxicity against MCF-7 ADR cancer cell line; assay type: functional; settings: Homo sapiens
A498 [10] = assay: Compound was evaluated for in vitro cytotoxicity against A 498 cancer cell line; assay type: functional; settings: Homo sapiens
M14 [11] = assay: Compound was evaluated for in vitro cytotoxicity against M-14 cancer cell line; assay type: functional; settings: Homo sapiens
DU-145 [12] = assay: Compound was evaluated for in vitro cytotoxicity against DU-145 cancer cell line; assay type: functional; settings: Homo sapiens
NCI-H522 = assay: Compound was evaluated for in vitro cytotoxicity against H522 cancer cell line; settings: Homo sapiens
MCF7 [13] = assay: Compound was evaluated for in vitro cytotoxicity data against human breast cancer MCF-7 ADR cell line; assay type: functional

SMILES	GI50 (COLO 205) [nM]	GI50 (HT-29) [nM]	GI50 (KM12) [nM]	GI50 (HCT-116) [nM]	GI50 (HCC 2998) [nM]	GI50 (HCT-15) [nM]	GI50 (BT-549) [nM]	GI50 (MDA-N) [nM]	GI50 (Hs-578T) [nM]	GI50 (MDA-MB-231) [nM]	GI50 (MDA-MB-435) [nM]	GI50 (MCF7 [3]) [nM]	GI50 (SW-620) [nM]	GI50 [6] [nM]	further results
COC(=O)[C@@H]1C(c2cc(OC)c(OC)c(OC)c2)c2cc3c(cc2[C@@H]2OC(=O)OC[C@@H]12)OCO3 (some centres not stated)	2000	> 30000	70000	> 30000	20000	10000									
CCOC(=O)[C@@H]1C(c2cc(OC)c(OC)c(OC)c2)c2cc3c(cc2[C@@H]2OC(=O)OC[C@@H]12)OCO3 (some centres not stated)	1500	2000	6000	90	8000	200									
CCOC(=O)[C@@H]1[C@H](c2cc(OC)c(O)c(OC)c2)c2cc3c(cc2[C@@H]2OC(=O)OC[C@@H]12)OCO3	30000	200	200	600	1500	400									
CCOC(=O)[C@@H]1[C@H](c2cc(OC)c(O)c(OC)c2)c2cc3c(cc2[C@H](O)[C@H]1CO)OCO3	1160	880	780	1700	1300	2070	4910	1060	1200	6780	840	2170	1170		GI50 (M14 [1]): 2100 nM; GI50 (A498 [2]): 1100 nM; GI50 (SK-OV-3 [4]): 3350 nM; GI50 (DU-145 [5]): 1630 nM
CCCCOC(=O)[C@@H]1[C@H](c2cc(OC)c(OC)c(OC)c2)c2cc3c(cc2[C@H](O)[C@H]1CO)OCO3	1900	2500	1860	3700	1800	2000	> 30000	11500		> 30000	1600	2000	2200	5600	
CCOC(=O)[C@@H]1[C@H](c2cc(OC)c(OC)c(OC)c2)c2cc3c(cc2[C@H](O)[C@H]1CO)OCO3	14000	17000	8400	24000	14000	13000	> 30000	3500	27000	18000	4400	23000	26000	14000	GI50 (SK-OV-3 [7]): 29900 nM; GI50 (M14 [1]): 14900 nM; GI50 (A498 [2]): > 30000 nM; GI50 (MCF7 [8]): 14300 nM; GI50 (DU-145 [5]): > 30000 nM
COC(=O)[C@@H]1[C@H](c2cc(OC)c(O)c(OC)c2)c2cc3c(cc2[C@@H]2OC(=O)OC[C@@H]12)OCO3	200	> 30000	400	500	1000	400									
COC(=O)[C@@H]1[C@H](c2cc(OC)c(O)c(OC)c2)c2cc3c(cc2[C@H](O)[C@H]1CO)OCO3	100	90	110	200	800	1020	500	100	3120	100	100	300	340	100	GI50 (M14 [1]): 860 nM; GI50 (A498 [2]): 400 nM; GI50 (SK-OV-3 [4]): 340 nM; GI50 (MCF7 [8]): 100 nM; GI50 (DU-145 [5]): 470 nM
CCCOC(=O)[C@@H]1[C@H](c2cc(OC)c(OC)c(OC)c2)c2cc3c(cc2[C@H](O)[C@H]1CO)OCO3	1200	890	560	420	1700	1400	> 30000	1450	2130	> 30000	400	800	700	3200	
COC(=O)[C@@H]1[C@H](c2cc(OC)c(OC)c(OC)c2)c2cc3c(cc2C(=O)[C@H]1CO)OCO3	7710	3520	3620	6260	10800	5710	29000	2240	1890	16500	1640	4110	3710	17500	
COc1cc([C@@H]2c3cc4c(cc3[C@H](O)[C@@H](CO)[C@@H]2C(=O)O)OCO4)cc(OC)c1OC	< 10	50000	< 10	40000	55000	> 100000									
CCCOC(=O)[C@@H]1C(c2cc(OC)c(OC)c(OC)c2)c2cc3c(cc2[C@@H]2OC(=O)OC[C@@H]12)OCO3 (some centres not stated)	900	> 30000	2000	500	2000	300									
COC(=O)[C@@H]1[C@H](c2cc(OC)c(OC)c(OC)c2)c2cc3c(cc2[C@H](O)[C@H]1CO)OCO3	10	20	20	40	30	40	60	10	10	30	10	30	20	40	GI50 (SK-OV-3 [7]): 30 nM; GI50 (MCF7 [9]): 40 nM; GI50 (A498 [10]): 30 nM; GI50 (M14 [11]): 40 nM; GI50 (DU-145 [12]): 40 nM; GI50 (NCI-H522): 10 nM
CCOC(=O)[C@@H]1[C@H](c2cc(OC)c(OC)c(OC)c2)c2cc3c(cc2C(=O)[C@H]1CO)OCO3	2220	3360	4210	4350	5630	3990	5450	1700	1560	5990	1330	3860	2070	5140	
COc1cc([C@@H]2c3cc4c(cc3[C@@H](O[C@@H]3O[C@@H]5CO[C@@H](C)O[C@H]5[C@H](O)[C@H]3O)[C@H]3COC(=O)[C@H]23)OCO4)cc(OC)c1O [ETOPOSIDE]	18100	15100	5620	6160	3460			< 10	8000	2000	900				GI50 (MCF7 [13]): 25000 nM
COc1cc([C@@H]2c3cc4c(cc3[C@H](O)[C@H]3COC(=O)[C@H]23)OCO4)cc(OC)c1OC [PODOFILOX]		10	10	10	200	20		70	80	40	700	900		600	
